From ChEMBL document CHEMBL3885861, “Open TG-GATES”

Species on record: Rattus norvegicus
Experiment: Open TG-GATES - Regimen: Single
Format: toxicity, organism-based, Sprague-Dawley
Set-up: regimen Single, gender Male, age 6 weeks
Settings: in vivo, po, 300 mg/kg, route gavage, dose level High; for APTT / Bas / Eos / Fbg / Hb / Ht / Lym / MCH / MCHC / MCV / Mono / Neu / PT / Plat / RBC / Ret / WBC: tissue Blood; for KIDNEY_L / KIDNEY_R / KIDNEY_TOTAL: tissue Kidney; for LIVER: tissue Liver; for A/G / ALP / ALT / AST / BUN / CRE / Ca / Cl / DBIL / GLC / IP / K / LDH / Na / PL / RALB / TBIL / TC / TG / TP / gamma-GTP: tissue Plasma

CCOC(=O)C(C)(C)Oc1ccc(Cl)cc1 [CLOFIBRATE]
TERMINAL_BW (3 h): 225.9 g | APTT (3 h): 19.5 s | Bas (3 h): 0% | Eos (3 h): 1% | Fbg (3 h): 231.2 mg/dL | Hb (3 h): 13.5 g/dL | Ht (3 h): 39.3% | Lym (3 h): 78% | MCH (3 h): 21.4 pg | MCHC (3 h): 34.2% | MCV (3 h): 62.5 fL | Mono (3 h): 3% | Neu (3 h): 17.2% | PT (3 h): 12.5 s | Plat (3 h): 127.2 x10_4/uL | RBC (3 h): 629.6 x10_4/ul | Ret (3 h): 7.9% | WBC (3 h): 103.9 x10_2/uL | KIDNEY_L (3 h): 1 g | KIDNEY_R (3 h): 1 g | KIDNEY_TOTAL (3 h): 2 g | LIVER (3 h): 9.8 g | A/G (3 h): 1.6 | ALP (3 h): 991.6 IU/L | ALT (3 h): 41.8 IU/L | AST (3 h): 73.2 IU/L | BUN (3 h): 10.4 mg/dL | CRE (3 h): 0.4 mg/dL | Ca (3 h): 11 mg/dL | Cl (3 h): 102.4 meq/L | DBIL (3 h): 0.1 mg/dL | GLC (3 h): 190 mg/dL | IP (3 h): 9.4 mg/dL | K (3 h): 3.6 meq/L | LDH (3 h): 260.6 IU/L | Na (3 h): 140.4 meq/L | PL (3 h): 149.6 mg/dL | RALB (3 h): 3.5 g/dL | TBIL (3 h): 0.2 mg/dL | TC (3 h): 73 mg/dL | TG (3 h): 76.2 mg/dL | TP (3 h): 5.6 g/dL | gamma-GTP (3 h): 0.6 IU/L | TERMINAL_BW (6 h): 227.7 g | APTT (6 h): 18.2 s | Bas (6 h): 0% | Eos (6 h): 1% | Fbg (6 h): 240.8 mg/dL | Hb (6 h): 13.4 g/dL | Ht (6 h): 38.8% | Lym (6 h): 76.4% | MCH (6 h): 21.1 pg | MCHC (6 h): 34.5% | MCV (6 h): 61.3 fL | Mono (6 h): 3.2% | Neu (6 h): 18.4% | PT (6 h): 12.7 s | Plat (6 h): 134.1 x10_4/uL | RBC (6 h): 633.8 x10_4/ul | Ret (6 h): 7.4% | WBC (6 h): 83.7 x10_2/uL | KIDNEY_L (6 h): 1 g | KIDNEY_R (6 h): 1 g | KIDNEY_TOTAL (6 h): 2 g | LIVER (6 h): 9.5 g | A/G (6 h): 1.6 | ALP (6 h): 1008 IU/L | ALT (6 h): 35.8 IU/L | AST (6 h): 74.4 IU/L | BUN (6 h): 10.2 mg/dL | CRE (6 h): 0.4 mg/dL | Ca (6 h): 10.9 mg/dL | Cl (6 h): 102.8 meq/L | DBIL (6 h): 0.09 mg/dL | GLC (6 h): 195.6 mg/dL | IP (6 h): 9.5 mg/dL | K (6 h): 4 meq/L | LDH (6 h): 218.8 IU/L | Na (6 h): 140.4 meq/L | PL (6 h): 135 mg/dL | RALB (6 h): 3.5 g/dL | TBIL (6 h): 0.2 mg/dL | TC (6 h): 71 mg/dL | TG (6 h): 96.2 mg/dL | TP (6 h): 5.7 g/dL | gamma-GTP (6 h): 1.2 IU/L | TERMINAL_BW (9 h): 229.4 g | APTT (9 h): 18 s | Bas (9 h): 0% | Eos (9 h): 1% | Fbg (9 h): 235.6 mg/dL | Hb (9 h): 13.1 g/dL | Ht (9 h): 38.1% | Lym (9 h): 72.8% | MCH (9 h): 21 pg | MCHC (9 h): 34.5% | MCV (9 h): 61 fL | Mono (9 h): 2.8% | Neu (9 h): 22.8% | PT (9 h): 12.9 s | Plat (9 h): 140.4 x10_4/uL | RBC (9 h): 625.6 x10_4/ul | Ret (9 h): 7.1% | WBC (9 h): 69.9 x10_2/uL | KIDNEY_L (9 h): 1 g | KIDNEY_R (9 h): 1 g | KIDNEY_TOTAL (9 h): 2 g | LIVER (9 h): 9.4 g | A/G (9 h): 1.5 | ALP (9 h): 1054.2 IU/L | ALT (9 h): 33 IU/L | AST (9 h): 70.4 IU/L | BUN (9 h): 10.8 mg/dL | CRE (9 h): 0.4 mg/dL | Ca (9 h): 10.5 mg/dL | Cl (9 h): 102.4 meq/L | DBIL (9 h): 0.09 mg/dL | GLC (9 h): 201 mg/dL | IP (9 h): 10.3 mg/dL | K (9 h): 3.7 meq/L | LDH (9 h): 203.6 IU/L | Na (9 h): 140.4 meq/L | PL (9 h): 116 mg/dL | RALB (9 h): 3.3 g/dL | TBIL (9 h): 0.1 mg/dL | TC (9 h): 53.8 mg/dL | TG (9 h): 81.8 mg/dL | TP (9 h): 5.5 g/dL | gamma-GTP (9 h): 1 IU/L | TERMINAL_BW (24 h): 236.8 g | APTT (24 h): 19.3 s | Bas (24 h): 0% | Eos (24 h): 0.8% | Fbg (24 h): 218.2 mg/dL | Hb (24 h): 13.5 g/dL | Ht (24 h): 38.6% | Lym (24 h): 77.2% | MCH (24 h): 21.2 pg | MCHC (24 h): 34.9% | MCV (24 h): 60.7 fL | Mono (24 h): 4% | Neu (24 h): 17.6% | PT (24 h): 13.3 s | Plat (24 h): 127.2 x10_4/uL | RBC (24 h): 636.8 x10_4/ul | Ret (24 h): 6.4% | WBC (24 h): 102.9 x10_2/uL | KIDNEY_L (24 h): 1 g | KIDNEY_R (24 h): 1.1 g | KIDNEY_TOTAL (24 h): 2.1 g | LIVER (24 h): 12.3 g | A/G (24 h): 1.7 | ALP (24 h): 1007.8 IU/L | ALT (24 h): 38 IU/L | AST (24 h): 79 IU/L | BUN (24 h): 15.4 mg/dL | CRE (24 h): 0.4 mg/dL | Ca (24 h): 10.6 mg/dL | Cl (24 h): 100.4 meq/L | DBIL (24 h): 0.086 mg/dL | GLC (24 h): 201.2 mg/dL | IP (24 h): 7.5 mg/dL | K (24 h): 3.8 meq/L | LDH (24 h): 223.4 IU/L | Na (24 h): 140 meq/L | PL (24 h): 104.8 mg/dL | RALB (24 h): 3.5 g/dL | TBIL (24 h): 0.1 mg/dL | TC (24 h): 43.6 mg/dL | TG (24 h): 103.8 mg/dL | TP (24 h): 5.5 g/dL | gamma-GTP (24 h): 1.4 IU/L
